Source: US4990498A, “2- and 8-azido(2'-5')oligoadenylates and antiviral uses thereof” (Temple University-of the Commonwealth System of Higher …, priority 1988, dated 1991)

Assays:
RNase L [1] = test: rRNA cleavage assay: activation of RNase L in L929 cell extracts; type: biochemical, murine; details: for final concentration at which RNase L is activated to degrade rRNA to specific cleavage products / concentration dependence of rRNA degradation / potency in rRNA degradation relative to authentic p3 A3: L929 cell extracts; for final concentration at which RNase L is activated to degrade rRNA to specific cleavage products: "as low as"; for concentration dependence of rRNA degradation / potency in rRNA degradation relative to authentic p3 A3 / biological activity (RNase L binding and activation) relative to authentic 2-5A: in words
Experimental: FIG. 2 represents a rRNA cleavage assay with 2-azido-p3 A3 and 8-azido-p3 A3 L929 cell extracts were incubated in the absence (lane 4) or presence of p3 A3 (lane 1), 2-azido-p3 A3 (lane 2), or 8-azido-p3 A3 (lane 3) at 1 x 10^-8 M final concentrations. The positions of 28S and 18S rRNA, and the positions of RNase L specific cleavage products ("SCP"), are indicated.
Activation of RNase L by the compounds of the invention was also measured in a ribosomal RNA cleavage assay using L929 cell extracts. The extracts were prepared in glycerol buffer in 15 microliters final volume as described by Kariko et al., Biochem. Biophys. Res. Commun. 128:695-698 (1985).

[2] = system: 2-5A binding proteins from L929 cells (believed to be forms of RNase L); test: Photoaffinity labelling / covalent cross-linking of 2-5A binding proteins in interferon-treated L929 cell extracts (SDS-PAGE, autoradiography); parameters: species or system murine; details: for UV exposure time for maximal photo-crosslinking: 254 nm, 0° C.; for molecular weight of protein(s) specifically photolabelled / cross-linked: L929 cell extracts; for molecular weight of protein(s) specifically photolabelled / cross-linked / number of proteins photolabelled / cross-linked: 60 s UV; for number of proteins photolabelled / cross-linked: interferon-treated L929 cell extracts
Experimental: FIG. 3A is an autoradiogram following SDS-PAGE of interferon-treated L929 cell extracts incubated with [gamma-^32 P]2-azido-p3 A3 at 1×10^-6 M in the absence (lane 1) or presence of p3A3 at 1×10^-5 M and 1×10^-4 M (lanes 2 and 3, respectively).The samples were UV-irradiated for 60 seconds at 0° C. prior to electrophoresis. Photolabelled proteins were detected by autoradiography. Molecular weight standards are indicated.
FIG. 4A is an autoradiogram following SDS-PAGE of interferon treated L929 cell extracts incubated with [alpha-^32 P]8-azido-p3 A3 at 1×10^-6 M in the absence (lanes 1 and 2) or presence of the following: p3 A3 at 1×10^-4 M (lane 3); p3 A3 at 5×10^-4 M (lane 4); or 3'-5'A3 at 5×10^-4 M (lane 5). The samples were UV irradiated (lanes 2-6) for 60 seconds at 0° C. prior to electrophoresis. Under identical experimental conditions, the L929 cell extract was incubated with p3 A4 [^32 P]pCp at 1×10^-8 M (lane 6). Photolabelled proteins were detected by autoradiography.
Ten microliters of L929 cell extracts (100 micrograms protein/assay) were combined with 10 microliters of a buffer (140 mM NaCl, 35 mM Tris-HCl, pH 7.5) and were incubated in the presence of 1×10^-6 M [gamma-^32 p]2-azido -p3 A3 (0.9 microCi/nmol) or 1×10^-6 M [alpha-^32 p]8-azido -p3 A3 (0.9 microCi/nmol) or 1×10^-9 M p3 A4 [^32 P]pCp (3 mCi/nmol) in a 30 microliter final volume. The samples, after incubation in microcentrifuge tubes at 0° C. for 90 minutes, were transferred into ice-mold porcelain spot plates and photolysed for 60 seconds using a 254 nm UVG-11 Mineralight lamp (Ultraviolet Products, Inc.) at a distance of 2 cm (1.0 J/m^2). Sixty microliters of a reductive, protein-solubilizing mixture (15.4 mg/ml dithiothreitol, 25% w/v sucrose, 2.5% sodium dodecylsulfate, 25 mM TrisHCl, pH 8.0, 0.0025% pyronine Y) were added to the samples. Photo-incorporation of the ^32 P-labeled 2-azido-p3 A3 and 8-azido-p3 A3 into the L929 protein was determined by SDS-PAGE (Lamelli, Nature (London) 227:680-685 (1970)). The SDS-PAGE gels were stained with Coomassie blue, dried and subject to autoradiography at -70° C. with X-Omat film (Kodak).

RNase L [3] = test: rRNA cleavage assay with photolabelled RNase L/8-azido-p3 A3 complex; type: biochemical, murine; details: 1×10^-6 M 8-azido-p3 A3, 60 s UV 254 nm; in words
Experimental: Ten microliters of L929 cell extract (100 microgram protein/assay) were combined with ten microliters buffer (140 mM NaCl, 35 mM Tris-HCl, pH 7.5) and were incubated in the presence of 1×10^-6 M 8-azido-p3 A3 in a 30 microliter final volume. The sample was transferred to ice-cold porcelain spot plates and photolysed for 60 second using a 254 nm UVG-11 Mineralight lamp at a distance of 2 cm (1.0 J/m^2) to photolabel the RNase L/8-azido-p3 A3 complex. A ribosomal RNA cleavage assay was performed as described above, but using the photolabelled complex.

RNase L [4] = test: Core-cellulose assay: activation of partially purified RNase L to hydrolyze poly(U)[^32 P]pCp; type: biochemical, murine; details: in words
From the text: The recently developed core cellulose assay of Silverman, Anal. Biochem. 144:450-460 (1985), which involves the immobilization and partial purification of RNase L on 2-5A core-cellulose, was used to measure the ability of 8-azido-p3 A3 to activate RNase L. For this purpose, poly(U)[^32 P]pCp was synthesized from poly(U) using T4 RNA ligase, as described by Silverman. 8-Azido-p3 A3 (solid circle data

RNase L [5] = test: Radiobinding assay: competition with p3 A4 [^32 P]pCp for binding to RNase L in L929 cell extracts; parameters: species or system murine; details: in words
Experimental: RNase L was obtained from L929 cells by the following procedure. The L929 cells were maintained in monolayer culture in Dulbecco's modified Eagle medium supplemented with 5% bovine serum. Monolayers were tested with 200 units/ml of mouse interferon for 20 hours. Cell extracts of the L929 cells were prepared by collecting the cells by trypsinization, washing them once with phosphate-buffered saline and lysing the cells in NP40 buffer according to the method of Silverman, et al., Eur. J. Biochem. 124:131-138 (1982).
The ability of 8-azido-p3 A3 to compete with p3 A4 -[^32 P]pCp for binding to RNase L in the L929 cell extracts was compared to p3 A3 using radiobinding assays (50 micrograms of protein/assay) according to the method of Knight et al., Methods Enzymol. 79:216-227 (1981). […] 8-Azido-p3 A3 (FIG. 1A, solid circle data points) binds to RNase L with an IC50 of 2×10^-9 M, which is equivalent to the IC50 of authentic p3 A3 (FIG. 1A, solid triangle data points).

Row | Substance | final concentration at which RNase L is activated to degrade rRNA to specific cleavage products (RNase L [1]) | concentration dependence of rRNA degradation (RNase L [1]) | potency in rRNA degradation relative to authentic p3 A3 (RNase L [1]) | biological activity (RNase L binding and activation) relative to authentic 2-5A (RNase L [1]) | size of photolabelled protein ([2]; 1×10^-6 M [gamma-^32 P]2-azido-p3 A3, 60 s UV, protein a) | UV exposure time for maximal photo-crosslinking [2] [s] | molecular weight of protein(s) specifically photolabelled / cross-linked [2] | number of proteins photolabelled / cross-linked [2] | rRNA cleavage by RNase L after photolabelling (RNase L [3]) | potency in activating RNase L relative to authentic p3 A3 (RNase L [4]) | inhibition of p3 A4 [^32 P]pCp binding to RNase L (RNase L [5])
1 | 5'-0-triphosphoryl-(2-azidoadenylyl)(2'-5')2-azidoadenylyl(2'5')2-azidoadenosine [2-azido-p3 A3] | 10^-9 M | concentration dependent | as potent as authentic p3 A3 | almost identical to that of authentic 2-5A | 185,000 dalton | 60 | 185,000 | one |  |  | 
2 | 5'-0-triphosphoryl-(8-azidoadenylyl)(2'-5')8-azidoadenylyl(2'-5')8-azidoadenosine [8-azido-p3 A3] | 10^-9 M | concentration dependent | as potent as authentic p3 A3 | almost identical to that of authentic 2-5A |  | 60 | 46,000-158,000 | six | observed to cleave 18S and 28S rRNA to the same specific cleavage products characteristic of RNase L activation by 8-azido-p3 A3 without photoactivation | equipotent to authentic p3 A3 | inhibited p3 A4 [^32 P]pCp binding to RNase L in a concentration dependent manner
